Reference: the supplement of paper PMC11451515

Test system: P12-Ichikawa
Assay: cell viability relative to DMSO control; higher = less cytotoxic
Conditions: 48 h
Summary of the method: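 Library compounds in DMSO were pin-dosed into 1536-well plates (5 μl) holding NOMO1 or SEM (500 cells/well) or P12-Ichikawa (1000 cells/well) leukemia cells, across an 11-point threefold series of 47 μM to 0.79 nM. Each cell line had been adapted for at least four passages in each medium. CellTiter-Glo One luminescence was read after 48 h at 37°C. Viability is the per-plate percentage relative to DMSO wells, with cell-free wells as background.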

[1] = HPLM + 10% dialyzed FBS, 0.000781 µM
[2] = HPLM + 10% dialyzed FBS, 0.00234 µM
[3] = HPLM + 10% dialyzed FBS, 0.00702 µM
[4] = HPLM + 10% dialyzed FBS, 0.0211 µM
[5] = HPLM + 10% dialyzed FBS, 0.0632 µM
[6] = HPLM + 10% dialyzed FBS, 0.19 µM
[7] = HPLM + 10% dialyzed FBS, 0.569 µM
[8] = HPLM + 10% dialyzed FBS, 1.71 µM
[9] = HPLM + 10% dialyzed FBS, 5.12 µM
[10] = HPLM + 10% dialyzed FBS, 15.4 µM
[11] = HPLM + 10% dialyzed FBS, 46.1 µM
[12] = RPMI 5 mM glucose + 10% FBS, 0.000781 µM
[13] = RPMI 5 mM glucose + 10% FBS, 0.00234 µM
[14] = RPMI 5 mM glucose + 10% FBS, 0.00702 µM
[15] = RPMI 5 mM glucose + 10% FBS, 0.0211 µM
[16] = RPMI 5 mM glucose + 10% FBS, 0.0632 µM
[17] = RPMI 5 mM glucose + 10% FBS, 0.19 µM
[18] = RPMI 5 mM glucose + 10% FBS, 0.569 µM
[19] = RPMI 5 mM glucose + 10% FBS, 1.71 µM
[20] = RPMI 5 mM glucose + 10% FBS, 5.12 µM
[21] = RPMI 5 mM glucose + 10% FBS, 15.4 µM
[22] = RPMI 5 mM glucose + 10% FBS, 46.1 µM
[23] = RPMI 5 mM glucose + 10% dialyzed FBS, 0.000781 µM
[24] = RPMI 5 mM glucose + 10% dialyzed FBS, 0.00234 µM
[25] = RPMI 5 mM glucose + 10% dialyzed FBS, 0.00702 µM
[26] = RPMI 5 mM glucose + 10% dialyzed FBS, 0.0211 µM
[27] = RPMI 5 mM glucose + 10% dialyzed FBS, 0.0632 µM
[28] = RPMI 5 mM glucose + 10% dialyzed FBS, 0.19 µM
[29] = RPMI 5 mM glucose + 10% dialyzed FBS, 0.569 µM
[30] = RPMI 5 mM glucose + 10% dialyzed FBS, 1.71 µM
[31] = RPMI 5 mM glucose + 10% dialyzed FBS, 5.12 µM
[32] = RPMI 5 mM glucose + 10% dialyzed FBS, 15.4 µM
[33] = RPMI 5 mM glucose + 10% dialyzed FBS, 46.1 µM

Row | Structure (SMILES) | cell viability [1] | cell viability [2] | cell viability [3] | cell viability [4] | cell viability [5] | cell viability [6] | cell viability [7] | cell viability [8] | cell viability [9] | cell viability [10] | cell viability [11] | cell viability [12] | cell viability [13] | cell viability [14] | cell viability [15] | cell viability [16] | cell viability [17] | cell viability [18] | cell viability [19] | cell viability [20] | cell viability [21] | cell viability [22] | cell viability [23] | cell viability [24] | cell viability [25] | cell viability [26] | cell viability [27] | cell viability [28] | cell viability [29] | cell viability [30] | cell viability [31] | cell viability [32] | cell viability [33]
1 | CC(C)(C)OC(=O)Nc1ccc(-c2cc(C(=O)NCCCCCCC(=O)NO)no2)cc1 | 90.9% | 94.6% | 92.3% | 95.2% | 93.3% | 92.5% | 92.8% | 45.8% | 40.7% | 4.57% | 4.67% | 87.8% | 85.6% | 87% | 88.1% | 80.1% | 80% | 84.8% | 32.5% | 35.3% | 3.1% | 3.16% | 88.4% | 90.5% | 83.7% | 86.6% | 82.6% | 85.4% | 83% | 9.73% | 7.46% | 3.76% | 3.52%
2 | Clc1ccccc1C(c1ccccc1)(c1ccccc1)n1ccnc1 | 108% | 114% | 107% | 115% | 108% | 110% | 107% | 96.7% | 100% | 91.7% | 74.8% |  |  |  |  |  |  |  |  |  |  |  | 103% | 114% | 112% | 108% | 106% | 110% | 103% | 102% | 88.6% | 93.8% | 58.5%
3 | COc1cc(OC)c(C(=O)CCCN2CCCC2)c(OC)c1 | 116% | 120% | 128% | 119% | 120% | 116% | 112% | 113% | 118% | 117% | 116% | 119% | 123% | 132% | 130% | 125% | 124% | 122% | 109% | 112% | 111% | 111% |  |  |  |  |  |  |  |  |  |  | 
4 | NC(CO)C(=O)NNCc1ccc(O)c(O)c1O (configuration not stated) | 103% | 93.7% | 99.7% | 103% | 103% | 100% | 87.9% | 90.7% | 90.9% | 92.2% | 54% | 96.5% | 100% | 99.6% | 91% | 105% | 99.5% | 91.7% | 92.8% | 93.6% | 81% | 19.1% | 99.9% | 89% | 94% | 98.3% | 96.5% | 93.7% | 88.6% | 94.2% | 85.3% | 91.4% | 26.5%
5 | CCC(C1CCC(C)C(O1)C(C)C(O)C(C)C(=O)C(CC)C2OC\3(O[C@]4(CC[C@@](C)(O4)C5CC[C@@](O)(CC)C(C)O5)C(O)\C=C3)C(C)CC2C)C([O-])=O (some centres not stated) | 103% | 112% | 109% | 101% | 106% | 106% | 105% | 82.8% | 74.5% | 74.8% | 64.5% | 85% | 111% | 101% | 111% | 104% | 109% | 100% | 73.7% | 60.9% | 56.1% | 42.5% | 96.4% | 107% | 109% | 113% | 112% | 108% | 86.2% | 68.8% | 55.7% | 44.9% | 41.1%
6 | N=C(N)Nc1ccc(C(=O)Oc2ccc3cc(C(=N)N)ccc3c2)cc1 | 88.3% | 104% | 98.8% | 92.5% | 103% | 95.5% | 88.6% | 83.9% | 87.9% | 87.4% | 72.3% | 96.4% | 93% | 99.4% | 90.5% | 102% | 95.9% | 91.1% | 97% | 88.4% | 95.7% | 52% | 83.8% | 92.3% | 86.5% | 83.4% | 89.5% | 85% | 86.7% | 87.1% | 85.1% | 83.7% | 53%
7 | Cc1ccc(/C=N/NC(=O)c2ccccc2Oc2ccccc2)o1 | 95.5% | 107% | 91.4% | 96.5% | 100% | 98.3% | 94.6% | 94.9% | 89.7% | 89.7% | 79.4% | 94% | 99% | 90.6% | 88.5% | 91.3% | 90.8% | 91.6% | 92.2% | 95.1% | 85.8% | 63.9% | 85.2% | 82.6% | 87.7% | 89.4% | 90.3% | 90.3% | 88.8% | 82.4% | 82.3% | 86.4% | 78.3%
8 | N#C/C(=C1/Nc2ccccc2S1)c1ccnc(OCc2ccc(CN3CCOCC3)cc2)n1 | 106% | 105% | 110% | 112% | 110% | 119% | 109% | 110% | 105% | 40.1% | 37.1% | 103% | 105% | 116% | 109% | 111% | 109% | 118% | 109% | 102% | 28.8% | 33.1% | 101% | 106% | 106% | 93.1% | 105% | 104% | 108% | 107% | 102% | 44.5% | 38.6%
